Measured values published in patent publication US8580829B2 (Boehringer Ingelheim International GmbH, priority 2010, dated 2013).
pIC50: −log10 of the molar value.

Assays:
[1] = target: T1, recombinant human FLAP protein (Homo sapiens, UniProt P20292); test: FLAP binding assay (Scintillation Proximity Assay, displacement of [125I]L-691,831); settings: recombinant human FLAP membranes, [125I]L-691,831 probe; read-out: FLAP SPA IC50
T1 construct: made in house; host or cells: Sf9 insect cells (100,000 x g membrane fraction)
T1 sequence (P20292 1-161): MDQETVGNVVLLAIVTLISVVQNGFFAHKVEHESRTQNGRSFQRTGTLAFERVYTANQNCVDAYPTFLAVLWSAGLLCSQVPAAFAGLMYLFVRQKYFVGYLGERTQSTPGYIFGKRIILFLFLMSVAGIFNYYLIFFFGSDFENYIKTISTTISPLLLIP
Description: Cell pellets produced from sf9 insect cells expressing recombinant human FLAP protein are resuspended in buffer A [15 mM Tris-HCl (pH 7.5), 2 mM MgCl2, 0.3 mM EDTA, 1 mM PMSF]. The cells are lysed with a Dounce homogenizer and the material is centrifuged at 10,000×g for 10 minutes. The supernatant is then collected and centrifuged at 100,000×g for 60 minutes. To prepare membrane protein for an assay, an aliquot of the 100,000×g pellet is resuspended in 1 ml of buffer A, Dounce homogenized, and finally subjected to polytron mixing (30 seconds). Membrane protein (25 μl, 5 μg) is mixed with WGA SPA beads (Amersham) and stirred for 1 h.

[2] = tested on: synthesis of LTB4 in human whole blood; test: human whole blood LTB4 production inhibition assay; assay type: cell-based; settings: Homo sapiens, heparinized human whole blood, calcimycin 20 μM; read-out: hWB LTB4 IC50
Description: Compounds are additionally tested in a human whole blood assay to determine their ability to inhibit the synthesis of LTB4 in a cellular system. Compounds are combined with heparinized human whole blood and incubated for 15 minutes at 37° C. Calcimycin (20 μM final, prepared in phosphate-buffered saline, pH 7.4) is then added and the mixture is incubated for another 30 minutes at 37° C. The samples are centrifuged for 5 min at low speed (1500×g) and the plasma layer is removed. Plasma LTB4 concentrations are then measured using an antibody-based homogenous time-resolved fluorescence method (CisBio, Bedford, Mass.).

With `Cc1cc(C)c(-c2nc(C3(c4ccc(-c5cnc(N)nc5)cc4)CCC3)no2)c(=O)[nH]1` [Example 58, 3-(3-{1-[4-(2-Amino-pyrimidin-5-yl)-phenyl]-cyclobutyl}-1,2,4-oxadiazol-5-yl)-4,6-dimethyl-1H-pyridin-2-one] the pIC50 [1] was 8.70 and the pIC50 [2] was < 5.30.
In the case of `Nc1ncc(-c2ccc(C3(c4noc(-c5ccc(C(=O)N6CCC(F)(F)CC6)nc5)n4)CCC3)cc2)cn1` [Example 59, [5-(3-{1-[4-(2-amino-pyrimidin-5-yl)-phenyl]-cyclobutyl}-1,2,4-oxadiazol-5-yl)-pyridin-2-yl]-(4,4-difluoro-piperidin-1-yl)-methanone], the pIC50 [1] was 8.29 and the pIC50 [2] was 6.89.
With `Nc1ncc(-c2ccc(C3(c4noc(-c5ccc(C(=O)N6CCC(O)C6)nc5)n4)CCC3)cc2)cn1` (stereo not drawn) [Example 60, [5-(3-{1-[4-(2-Amino-pyrimidin-5-yl)-phenyl]-cyclobutyl]-1,2,4-oxadiazol-5-yl)-pyridin-2-yl]-(3-hydroxy-pyrrolidin-1-yl)-methanone] the pIC50 [1] was 8.33 and the pIC50 [2] was 6.82.
In the case of `CN(CCO)c1cnc(-c2nc(C3(c4ccc(-c5cnc(N)nc5)cc4)CCC3)no2)cn1` [Example 61, 2-{[5-(3-{1-[4-(2-amino-pyrimidin-5-yl)-phenyl]-cyclobutyl}-1,2,4-oxadiazol-5-yl)-pyrazin-2-yl]-methyl-amino}-ethanol], the pIC50 [1] was 8.82 and the pIC50 [2] was 7.28.
Work on `COCCNc1cnc(-c2nc(C3(c4ccc(-c5cnc(N)nc5)cc4)CCC3)no2)cn1` [Example 62, 5-[4-(1-{5-[5-(2-Methoxy-ethylamino)-pyrazin-2-yl]-1,2,4-oxadiazol-3-yl}-cyclobutyl)-phenyl]-pyrimidin-2-ylamine] yielded a pIC50 [1] of 8.89 and a pIC50 [2] of 7.89.
Compound `CCNc1cnc(-c2nc(C3(c4ccc(-c5cnc(N)nc5)cc4)CCC3)no2)cn1` [Example 63, 5-(4-{1-[5-(5-Ethylamino-pyrazin-2-yl)-1,2,4-oxadiazol-3-yl]-cyclobutyl}-phenyl)-pyrimidin-2-ylamine] has a pIC50 [1] of 9.00 and a pIC50 [2] of 7.60.
Work on `Nc1ncc(-c2ccc(C3(c4noc(-c5ccc(C(=O)N6CC(O)C6)nc5)n4)CCC3)cc2)cn1` [Example 64, [5-(3-{1-[4-(2-Amino-pyrimidin-5-yl)-phenyl]-cyclobutyl}-1,2,4-oxadiazol-5-yl)-pyridin-2-yl]-(3-hydroxy-azetidin-1-yl)-methanone] yielded a pIC50 [1] of 8.11 and a pIC50 [2] of 6.51.
In the case of `CCn1cccc(-c2nc(C3(c4ccc(-c5cnc(N)nc5)cc4)CCC3)no2)c1=O` [Example 65, 3-(3-{1-[4-(2-Amino-pyrimidin-5-yl)-phenyl]-cyclobutyl}-1,2,4-oxadiazol-5-yl)-1-ethyl-1H-pyridin-2-one], the pIC50 [1] was 8.23 and the pIC50 [2] was 7.01.
`COCCn1cccc(-c2nc(C3(c4ccc(-c5cnc(N)nc5)cc4)CCC3)no2)c1=O` [Example 66, 3-(3-{1-[4-(2-Amino-pyrimidin-5-yl)-phenyl]-cyclobutyl}-1,2,4-oxadiazol-5-yl)-1-(2-methoxy-ethyl)-1H-pyridin-2-one] gave a pIC50 [1] of 8.08 and a pIC50 [2] of 6.92.
Work on `Nc1ncc(-c2ccc(C3(c4noc(-c5cccn(CCO)c5=O)n4)CCC3)cc2)cn1` [Example 67, 3-(3-{1-[4-(2-Amino-pyrimidin-5-yl)-phenyl]-cyclobutyl}-1,2,4-oxadiazol-5-yl)-1-(2-hydroxy-ethyl)-1H-pyridin-2-one] yielded a pIC50 [1] of 7.92 and a pIC50 [2] of 6.54.
With `Nc1ncc(-c2ccc(C3(c4noc(-c5cnc(NCCO)cn5)n4)CCC3)cc2)cn1` [Example 68, 2-[5-(3-{1-[4-(2-Amino-pyrimidin-5-yl)-phenyl]-cyclobutyl}-1,2,4-oxadiazol-5-yl)-pyrazin-2-ylamino]-ethanol] the pIC50 [1] was 8.96 and the pIC50 [2] was 6.89.
With `Nc1ncc(-c2ccc(C3(c4noc(-c5ccc(C(=O)N6CCC6)nc5)n4)CCC3)cc2)cn1` [Example 70, [5-(3-{1-[4-(2-Amino-pyrimidin-5-yl)-phenyl]-cyclobutyl}-1,2,4-oxadiazol-5-yl)-pyridin-2-yl]-azetidin-1-yl-methanone] the pIC50 [1] was 8.52 and the pIC50 [2] was 6.66.
Work on `Nc1ncc(-c2ccc(C3(c4noc(-c5cscn5)n4)CCC3)cc2)cn1` [Example 71] yielded a pIC50 [1] of 8.62 and a pIC50 [2] of 6.70.
`Nc1ncc(-c2ccc(C3(c4noc(-c5cnn6cccnc56)n4)CCC3)cc2)cn1` [Example 72, 5-{4-[1-(5-Pyrazolo[1,5-a]pyrimidin-3-yl-1,2,4-oxadiazol-3-yl)-cyclobutyl]-phenyl}-pyrimidin-2-ylamine] was tested, and the pIC50 [1] was 8.72 and the pIC50 [2] was 7.74.
`Nc1ncc(-c2ccc(C3(c4noc(-c5ccc6nccn6c5)n4)CCC3)cc2)cn1` [Example 73, 5-{4-[1-(5-Imidazo[1,2-a]pyridin-6-yl-1,2,4-oxadiazol-3-yl)-cyclobutyl]-phenyl}-pyrimidin-2-ylamine] showed a pIC50 [1] of 8.17 and a pIC50 [2] of 6.35.
`Nc1ncc(-c2ccc(C3(c4noc(NCCO)n4)CCC3)cc2)cn1` [Example 74, 2-(3-{1-[4-(2-amino-pyrimidin-5-yl)-phenyl]-cyclobutyl}-1,2,4-oxadiazol-5-ylamino)-ethanol] was tested, and the pIC50 [1] was 7.15 and the pIC50 [2] was 6.28.
With `Nc1ncc(-c2ccc(C3(c4noc(-c5ccc(C(=O)N6CCC(F)(F)C6)nc5)n4)CCC3)cc2)cn1` [Example 75, [5-(3-{1-[4-(2-Amino-pyrimidin-5-yl)-phenyl]-cyclobutyl}-1,2,4-oxadiazol-5-yl)-pyridin-2-yl]-(3,3-difluoro-pyrrolidin-1-yl)-methanone] the pIC50 [1] was 8.46 and the pIC50 [2] was 6.72.
With `COCCNC(=O)c1ccc(-c2nc(C3(c4ccc(-c5cnc(N)nc5)cc4)CCC3)no2)cn1` [Example 76, 5-(3-{1-[4-(2-Amino-pyrimidin-5-yl)-phenyl]-cyclobutyl}-1,2,4-oxadiazol-5-yl)-pyridine-2-carboxylic acid (2-methoxy-ethyl)-amide] the pIC50 [1] was 8.41 and the pIC50 [2] was 6.72.
With `Nc1ncc(-c2ccc(C3(c4noc(-c5ccc(C(=O)NCCO)nc5)n4)CCC3)cc2)cn1` [Example 77, 5-(3-{1-[4-(2-Amino-pyrimidin-5-yl)-phenyl]-cyclobutyl}-1,2,4-oxadiazol-5-yl)-pyridine-2-carboxylic acid (2-hydroxy-ethyl)-amide] the pIC50 [1] was 8.59 and the pIC50 [2] was 6.80.
Work on `CN(CCO)C(=O)c1ccc(-c2nc(C3(c4ccc(-c5cnc(N)nc5)cc4)CCC3)no2)cn1` [Example 78, 5-(3-{1-[4-(2-Amino-pyrimidin-5-yl)-phenyl]-cyclobutyl}-1,2,4-oxadiazol-5-yl)-pyridine-2-carboxylic acid (2-hydroxy-ethyl)-methyl-amide] yielded a pIC50 [1] of 8.06 and a pIC50 [2] of 6.80.
`Nc1ncc(-c2ccc(C3(c4noc(N5CCCCC5)n4)CCC3)cc2)cn1` [Example 80, 5-{4-[1-(5-Piperidin-1-yl-1,2,4-oxadiazol-3-yl)-cyclobutyl]-phenyl}-pyrimidin-2-ylamine] was tested, and the pIC50 [1] was 8.19 and the pIC50 [2] was 6.41.
For `CNC(=O)Cn1cc(-c2nc(C3(c4ccc(-c5cnc(N)nc5)cc4)CCC3)no2)cn1` [Example 81, 2-[4-(3-{1-[4-(2-Amino-pyrimidin-5-yl)-phenyl]-cyclobutyl}-1,2,4-oxadiazol-5-yl)-pyrazol-1-yl]-N-methyl-acetamide], the pIC50 [1] was 8.19 and the pIC50 [2] was 6.89.
`CC(CO)n1cc(-c2nc(C3(c4ccc(-c5cnc(N)nc5)cc4)CCC3)no2)cn1` (stereo not drawn) [Example 82, 2-[4-(3-{1-[4-(2-Amino-pyrimidin-5-yl)-phenyl]-cyclobutyl}-1,2,4-oxadiazol-5-yl)-pyrazol-1-yl]-propan-1-ol] showed a pIC50 [1] of 8.51 and a pIC50 [2] of 7.00.
For `CC(O)Cn1cc(-c2nc(C3(c4ccc(-c5cnc(N)nc5)cc4)CCC3)no2)cn1` (stereo not drawn) [Example 83, 1-[4-(3-{1-[4-(2-Amino-pyrimidin-5-yl)-phenyl]-cyclobutyl}-1,2,4-oxadiazol-5-yl)-pyrazol-1-yl]-propan-2-ol], the pIC50 [1] was 8.40 and the pIC50 [2] was 6.96.
With `CC(C)(CO)n1cc(-c2nc(C3(c4ccc(-c5cnc(N)nc5)cc4)CCC3)no2)cn1` [Example 84, 2-[4-(3-{1-[4-(2-Amino-pyrimidin-5-yl)-phenyl]-cyclobutyl}-1,2,4-oxadiazol-5-yl)-pyrazol-1-yl]-2-methyl-propan-1-ol] the pIC50 [1] was 8.40 and the pIC50 [2] was 6.80.
Work on `Nc1ncc(-c2ccc(C3(c4noc(-c5cnc(N6CCOCC6)cn5)n4)CCC3)cc2)cn1` [Example 85, 5-(4-{1-[5-(5-Morpholin-4-yl-pyrazin-2-yl)-1,2,4-oxadiazol-3-yl]-cyclobutyl}-phenyl)-pyrimidin-2-ylamine] yielded a pIC50 [1] of 8.89 and a pIC50 [2] of 7.15.
Compound `Nc1ncc(-c2ccc(C3(c4noc(-c5cnc(N6CC(O)C6)cn5)n4)CCC3)cc2)cn1` [Example 86, 1-[5-(3-{1-[4-(2-Amino-pyrimidin-5-yl)-phenyl]-cyclobutyl}-1,2,4-oxadiazol-5-yl)-pyrazin-2-yl]-azetidin-3-ol] has a pIC50 [1] of 8.92 and a pIC50 [2] of 7.10.
